Consider 25 compounds from US20250282728A1, “NITROGEN COMPRISING HETEROCYCLIC DERIVATIVES FOR THE TREATMENT OF DISORDERS ASSOCIATED WITH GPR55 RECEPTOR” (Cerevance, Inc., priority 2022, published 2025).

In one test the target is T1, human GPR55 (Homo sapiens, UniProt Q9Y2T6).
T1 construct: expressed in transfected cells; host or cells: HEK293 (human embryonic kidney) cells
The experiment in a line: Ca2+ mobilization assay (FLIPR, Calcium5 dye), human GPR55. The format is cell-based. The following applies: HEK293 cells co-expressing PK-tagged human GPR55 and EA-tagged beta-arrestin; intracellular calcium increase. On the procedure:
(§1) This cell-based assay measures the ability of compounds to activate the GPR55 receptor by measuring changes in intracellular calcium levels. HEK293 (human embryonic kidney) cells co-expressing recombinant ProLink (PK) tagged human or rat GPR55 and Enzyme Acceptor (EA) tagged beta-arrestin were seeded into PDL-coated, black-walled clear-bottom 384 well plates in assay buffer (25 mM HEPES, HBSS, 1 mM Probenicid, 0.1% BSA, pH 7.4) containing Calcium5 dye (Molecular Devices). Cells were incubated in suspension with the Calcium5 dye for 1 hour at 37° C., 5% CO2. Dilution series of the compounds in assay buffer were added to the cells in duplicate wells and compound-mediated real-time increases in intracellular calcium concentration were recorded as increased fluorescence using the Molecular Devices FLIPR instrument. Kinetic traces were reduced to a numerical value by subtracting the minimum response from the maximum response.
For orientation: A change in cytosolic calcium serves as a functional read-out for many receptors and channels.

The target in a further test is T2, rat GPR55 (Rattus norvegicus, UniProt F1MAK4).
T2 construct: expressed in transfected cells; host or cells: HEK293 (human embryonic kidney) cells
T2 sequence (F1MAK4 1-319): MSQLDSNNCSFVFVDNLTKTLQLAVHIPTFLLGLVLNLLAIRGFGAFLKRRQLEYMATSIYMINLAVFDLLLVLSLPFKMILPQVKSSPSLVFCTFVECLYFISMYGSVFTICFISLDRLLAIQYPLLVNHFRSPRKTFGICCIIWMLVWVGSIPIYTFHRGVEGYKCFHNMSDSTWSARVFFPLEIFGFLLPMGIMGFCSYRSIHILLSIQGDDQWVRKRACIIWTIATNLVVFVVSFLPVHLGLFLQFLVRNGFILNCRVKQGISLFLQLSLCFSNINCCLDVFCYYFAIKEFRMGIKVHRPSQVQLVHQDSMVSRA
The experiment in a line: Ca2+ mobilization assay (FLIPR, Calcium5 dye), rat GPR55. Type of test: cell-based. To be noted: HEK293 cells co-expressing PK-tagged rat GPR55 and EA-tagged beta-arrestin; intracellular calcium increase. On the procedure:
as §1

A value given as a limit tells only on which side of the number the result lay.

T1 sequence (Q9Y2T6 whole entry): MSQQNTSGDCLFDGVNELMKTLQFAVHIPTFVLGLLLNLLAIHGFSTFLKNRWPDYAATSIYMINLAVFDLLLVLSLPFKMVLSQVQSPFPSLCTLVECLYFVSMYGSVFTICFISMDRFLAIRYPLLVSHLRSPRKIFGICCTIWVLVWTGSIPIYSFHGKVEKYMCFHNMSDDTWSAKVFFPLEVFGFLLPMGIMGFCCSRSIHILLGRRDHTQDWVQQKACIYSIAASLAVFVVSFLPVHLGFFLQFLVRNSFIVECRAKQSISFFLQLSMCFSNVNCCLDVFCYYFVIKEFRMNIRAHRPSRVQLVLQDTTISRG

With `C[C@@H](Nc1cnc(-c2cncc(CCF)c2)cn1)c1ccc(F)cc1` [Example 52, (R)-5-(5-(2-fluoroethyl)pyridin-3-yl)-N-(1-(4-fluorophenyl)ethyl)pyrazin-2-amine], the EC50 on human GPR55 was not above 50 nM; on rat GPR55 it was not above 200 nM.

With `C[C@@H](Nc1cnc(-c2cncc(CC(F)(F)F)c2)nn1)c1ccc(F)cc1` [Example 56, (R)-N-(1-(4-fluorophenyl)ethyl)-3-(5-(2,2,2-trifluoroethyl)pyridin-3-yl)-1,2,4-triazin-6-amine], the EC50 at human GPR55 was not above 1000 nM; at rat GPR55 it was not above 5000 nM.

Regarding `C[C@@H](Nc1cnc(-c2cnnc(CC(F)(F)F)c2)cn1)c1ccc(F)cc1` [Example 57, (R)-N-(1-(4-fluorophenyl)ethyl)-5-(6-(2,2,2-trifluoroethyl)pyridazin-4-yl)pyrazin-2-amine], the values for the EC50 on human GPR55 and at rat GPR55 were not above 50 nM and not above 5000 nM, respectively.

With `C[C@@H](Nc1cnc(-c2cnnc(C(O)C(F)(F)F)c2)cn1)c1ccc(F)cc1` (stereo partly drawn) [Example 58, 2,2,2-trifluoro-1-(5-(5-(((R)-1-(4-fluorophenyl)ethyl)amino)pyrazin-2-yl)pyridazin-3-yl)ethan-1-ol], the EC50 at human GPR55 is not above 50 nM; at rat GPR55, not above 5000 nM.

Take `C[C@@H](Nc1ccc(-c2ccc3oc(=O)[nH]c3c2)cn1)c1ccc(F)cc1` [Example 59, (R)-5-(6-((1-(4-fluorophenyl)ethyl)amino)pyridin-3-yl)benzo[d]oxazol-2(3H)-one]: the EC50 is not above 1000 nM on human GPR55 and not above 5000 nM at rat GPR55.

Take `C[C@@H](Nc1ccc(-c2ccc3[nH]c(=O)oc3c2)cn1)c1ccc(F)cc1` [Example 61, (R)-6-(6-((1-(4-fluorophenyl)ethyl)amino)pyridin-3-yl)benzo[d]oxazol-2(3H)-one]: the EC50 on human GPR55 was not above 1000 nM; at rat GPR55, not above 5000 nM.

`C[C@@H](Nc1cnc(-c2ccc3oc(=O)n(C)c3c2)cn1)c1ccc(F)cc1` [Example 62, (R)-5-(5-((1-(4-fluorophenyl)ethyl)amino)pyrazin-2-yl)-3-methylbenzo[d]oxazol-2(3H)-one]: the EC50 on human GPR55 and at rat GPR55 was not above 1000 nM throughout.

As to `C[C@@H](Nc1ncc(-c2ccc3oc(=O)n(C)c3c2)cn1)c1ccc(F)cc1` [Example 63, (R)-5-(2-((1-(4-fluorophenyl)ethyl)amino)pyrimidin-5-yl)-3-methylbenzo[d]oxazol-2(3H)-one], the EC50 at human GPR55 and at rat GPR55 was not above 1000 nM each time.

As for `C[C@@H](Nc1ncc(-c2ccc3oc(=O)n(CCO)c3c2)nn1)c1ccc(F)cc1` [Example 65, (R)-5-(3-((1-(4-fluorophenyl)ethyl)amino)-1,2,4-triazin-6-yl)-3-(2-hydroxyethyl)benzo[d]oxazol-2(3H)-one], the EC50 was not above 1000 nM at human GPR55 and not above 5000 nM on rat GPR55.

Consider `COCn1c(=O)oc2ccc(-c3cnc(N[C@H](C)c4ccc(F)cc4)nn3)cc21` [Example 66, (R)-5-(3-((1-(4-fluorophenyl)ethyl)amino)-1,2,4-triazin-6-yl)-3-(methoxymethyl)benzo[d]oxazol-2(3H)-one], for which the figures for the EC50 at human GPR55 and at rat GPR55 were not above 200 nM and not above 1000 nM, respectively.

In the case of `CCn1c(=O)oc2ccc(-c3cnc(N[C@H](C)c4ccc(F)cc4)nn3)cc21` [Example 67, (R)-3-ethyl-5-(3-((1-(4-fluorophenyl)ethyl)amino)-1,2,4-triazin-6-yl)benzo[d]oxazol-2(3H)-one], the values for the EC50 at human GPR55 and on rat GPR55 were not above 200 nM and not above 1000 nM, respectively.

As for `C[C@@H](Nc1ncc(-c2ccc3oc(=O)n(C(F)F)c3c2)nn1)c1ccc(F)cc1` [Example 68, (R)-3-(difluoromethyl)-5-(3-((1-(4-fluorophenyl)ethyl)amino)-1,2,4-triazin-6-yl)benzo[d]oxazol-2(3H)-one], the half-maximal effective concentration (EC50) at human GPR55 is not above 200 nM; on rat GPR55 it was not above 1000 nM.

For the compound `C[C@@H](Nc1ncc(-c2ccc3oc(=O)[nH]c3c2)nn1)c1ccc(F)cc1` [Example 69, (R)-5-(3-((1-(4-fluorophenyl)ethyl)amino)-1,2,4-triazin-6-yl)benzo[d]oxazol-2(3H)-one], the EC50 on human GPR55 and on rat GPR55 was not above 1000 nM throughout.

With `CSCn1c(=O)oc2ccc(-c3cnc(N[C@H](C)c4ccc(F)cc4)nn3)cc21` [Example 70, (R)-5-(3-((1-(4-fluorophenyl)ethyl)amino)-1,2,4-triazin-6-yl)-3-((methylthio)methyl)benzo[d]oxazol-2(3H)-one], the 50% effective concentration (EC50) at human GPR55 and on rat GPR55 was not above 200 nM in each case.

For the compound `C[C@@H](Nc1ncc(-c2ccc3oc(=O)n(CCN(C)C)c3c2)nn1)c1ccc(F)cc1` [Example 71, (R)-3-(2-(dimethylamino)ethyl)-5-(3-((1-(4-fluorophenyl)ethyl)amino)-1,2,4-triazin-6-yl)benzo[d]oxazol-2(3H)-one], the figures for the EC50 on human GPR55 and on rat GPR55 were not above 1000 nM and not above 5000 nM, respectively.

With `C[C@@H](Nc1ncc(-c2ccc3oc(=O)n(CS(C)(=O)=O)c3c2)nn1)c1ccc(F)cc1` [Example 72, (R)-5-(3-((1-(4-fluorophenyl)ethyl)amino)-1,2,4-triazin-6-yl)-3-((methylsulfonyl)methyl)benzo[d]oxazol-2(3H)-one], the EC50 at human GPR55 is not above 1000 nM; on rat GPR55, not above 5000 nM.

Regarding `C[C@@H](Nc1ncc(-c2ccc3oc(=O)n(C)c3c2)nn1)c1ccc(Cl)cc1` [Example 73, (R)-5-(3-((1-(4-chlorophenyl)ethyl)amino)-1,2,4-triazin-6-yl)-3-methylbenzo[d]oxazol-2(3H)-one], the EC50 at human GPR55 was not above 1000 nM; at rat GPR55, not above 5000 nM.

For `CC(Nc1ncc(-c2ccc3oc(=O)n(C)c3c2)nn1)c1ccc(C#N)cc1` (centres unmarked) [Example 74, 4-(1-((6-(3-methyl-2-oxo-2,3-dihydrobenzo[d]oxazol-5-yl)-1,2,4-triazin-3-yl)amino)ethyl)benzonitrile], the concentration giving a half-maximal response (EC50) was not above 1000 nM at human GPR55 and not above 5000 nM on rat GPR55.

Take `C[C@@H](Nc1ncc(-c2ccc3oc(=O)n(C)c3c2)nn1)c1ccc(F)cc1F` [Example 75, (R)-5-(3-((1-(2,4-difluorophenyl)ethyl)amino)-1,2,4-triazin-6-yl)-3-methylbenzo[d]oxazol-2(3H)-one]: the EC50 on human GPR55 and on rat GPR55 was not above 1000 nM each time.

With `C[C@@H](Nc1ncc(-c2ccc3oc(=O)n(C)c3c2)nn1)c1ccc(F)c(F)c1` [Example 76, (R)-5-(3-((1-(3,4-difluorophenyl)ethyl)amino)-1,2,4-triazin-6-yl)-3-methylbenzo[d]oxazol-2(3H)-one], the EC50 at human GPR55 and on rat GPR55 was not above 1000 nM each time.

For the compound `C[C@@H](Nc1ccc(-c2ccc3c(c2)N(C)C(=O)C3(F)F)cn1)c1ccc(F)cc1` [Example 79, (R)-3,3-difluoro-6-(6-((1-(4-fluorophenyl)ethyl)amino)pyridin-3-yl)-1-methylindolin-2-one], the EC50 at human GPR55 and on rat GPR55 was not above 5000 nM in each case.

As to `C[C@@H](Nc1ncc(-c2ccc3ocnc3c2)nn1)c1ccc(F)cc1` [Example 80, (R)-6-(benzo[d]oxazol-5-yl)-N-(1-(4-fluorophenyl)ethyl)-1,2,4-triazin-3-amine], the EC50 at human GPR55 was not above 200 nM; on rat GPR55, not above 1000 nM.

Turning to `C[C@@H](Nc1ncc(-c2ccc3ncn(C)c3c2)nn1)c1ccc(F)cc1` [Example 81, (R)-N-(1-(4-fluorophenyl)ethyl)-6-(1-methyl-1H-benzo[d]imidazol-6-yl)-1,2,4-triazin-3-amine], the EC50 on human GPR55 is not above 1000 nM; on rat GPR55, not above 5000 nM.

On to `C[C@@H](Nc1ncc(-c2cnc3ncn(C)c3c2)nn1)c1ccc(F)cc1` [Example 82, (R)-N-(1-(4-fluorophenyl)ethyl)-6-(1-methyl-1H-imidazo[4,5-b]pyridin-6-yl)-1,2,4-triazin-3-amine], for which the EC50 on human GPR55 was not above 1000 nM; at rat GPR55, not above 5000 nM.

For `C[C@@H](Nc1ncc(-c2cnc3c(c2)ncn3C)nn1)c1ccc(F)cc1` [Example 83, (R)-N-(1-(4-fluorophenyl)ethyl)-6-(3-methyl-3H-imidazo[4,5-b]pyridin-6-yl)-1,2,4-triazin-3-amine], the concentration giving a half-maximal response (EC50) at human GPR55 and at rat GPR55 was not above 5000 nM each time.

For orientation: EC50 means the concentration needed to bring the measured effect to its halfway point.
